This note sets out measurements from patent US8772349B2, “Cannabinoid quinone derivatives” (Vivacell Biotechnology Espana, S.L., priority 2010, dated 2014).

Series [1] can be described thus: MTT cytotoxicity assay, T47D. Particulars: human. (In general: Formazan colour is commonly taken as a measure of viable cells.)
Experimental: (§1) All cellular lines were grown at 37° C. and 5% CO2 in supplemented Dulbecco's modified Eagle's medium (DMEM) (Cambrex Co., Barcelona, Spain), containing 10% heat-inactivated fetal bovine serum (FBS) (Cambrex Co., Barcelona, Spain), 2 mM glutamine, penicillin (50 U/ml) and streptomycin (50 mg/ml).
(§2) Aliquots of cell suspensions were dispensed at 100 μl volumes into wells of 96-well tissue culture plates at a density of 10^4 cells/well. […] In each MTT assay, every concentration of the assayed substance was tested in three replicates. The inhibitory effect of the various compounds was calculated as percentage inhibition relative to cells treated with vehicle (0.5% DMSO).
Series [2] in a line: MTT cytotoxicity assay, MDA. Conditions: human.
Experimental: as §1, §2
Series [3] in a line: MTT cytotoxicity assay, HCT116. Conditions: human.
Experimental: as §1, §2
Series [4] in a line: MTT cytotoxicity assay, HeLa. Conditions: human.
Experimental: as §1, §2
The nature of series [5]: MTT cytotoxicity assay, 3T3-L1. Particulars: mouse.
Experimental: All cellular lines were grown at 37° C. and 5% CO2 in supplemented Dulbecco's modified Eagle's medium (DMEM) (Cambrex Co., Barcelona, Spain), containing 10% heat-inactivated fetal bovine serum (FBS) (Cambrex Co., Barcelona, Spain), 2 mM glutamine, penicillin (50 U/ml) and streptomycin (50 mg/ml). […] MSC were maintained in α-MEM with 15% FBS.
as §2
Series [6] can be described thus: MTT cytotoxicity assay, AGS. Particulars: human.
Experimental: as §1, §2
The test system of a further series is 3T3-L1 fibroblasts. Description: 3T3-L1 adipocyte differentiation assay / total triglyceride quantification.
In series [7] the test system is T47D, human breast adenocarcinoma. Nature of the series: MTT cytotoxicity assay, T47D. Conditions: read-out: IC50 values of MTT cytotoxicity assay; T47D, 24 hours of treatment.
Experimental: as §1, §2
Series [8] concerns adipokines gene expression (IL-6, AdipoQ). Nature of the series: Adipocyte and adipokine gene expression by PCR in 3T3-L1 adipocytes. Conditions: FIG. 5.
Experimental: 3T3-L1 fibroblasts were grown until confluence (3 days) in DMEM with 10% FBS and antibiotics. Then (day 0), medium was supplemented with 1 μM dexamethasone, IBMX 0.5 mM and 10 μg/ml insulin, to induce differentiation for 2 days. In day 2, the medium was supplemented only with 5 μg/ml insulin for two more days. All mediums used were additionally supplemented with cannabinoids, or rosiglitazone (1 μM) as control, since day 0. In case of RNA extractions, cells were harvested on day 4. […] GAPDH gene was used as houskeeping gene.
Another series relates to 3T3-L1 pre-adipocytes. Nature of the series: Glucose uptake (2-deoxy-D-glucose transport). Conditions: FIG. 6; for glucose uptake: presence and absence of insulin (1.74 μM). The series is classed as cell-based, mouse. The method, then: For assays of 2-deoxy-D-glucose transport 3T3-L1 pre-adipocytes cultured in 12-well plates were deprived of serum by incubation for 2 hours. […] Glucose transport was initiated by the addition of 50 μl of KRH buffer containing 0.5 mM 2-deoxy-D-[1, 2-3H]glucose (0.25 μCi) to each well; after 5 minutes, transport was terminated by washing the cells 3 times with ice-cold KRH buffer. The cells were solubilized, and the incorporated radioactivity was measured by liquid scintillation counting.
Data are given as means with deviation standard error bars of three replicates. […]

The subject of series [9] is bone-marrow derived mesenchimal cells. Description: Mesenchymal stem cell differentiation to osteoblasts or adipocytes, marker gene expression by QRT-PCR. Particulars: human MSC, compounds in differentiation medium, FIG. 7. It is filed as cell-based. The method, then:
Cells were plated at 500 cell/cm^2 on P6 plates (TPP, Trasadingen, Switzerland) containing α-MEM medium with 10% FBS. When the cell cultures were 80-90% confluent, the medium was supplemented with 10^−8 M dexamethasone, 0.2 mM ascorbic acid and 10 mM β-glycerolphosphate to induce differentiation to osteoblasts, and 5×10^−7 M dexamethasone, 0.5 mM isobutylmethylxanthine and […] indometacin to induce differentiation to adipocytes. All inducers were from Sigma-Aldrich. MSC (mesenchymal stem cells) were grown in an osteogenic or adipogenic medium for 21 days, together with a corresponding control (in the absence of differentiation inducers). Cell samples were collected at day 13. […] Expression values of nuclear ribosomal DNA were used to normalise the obtained values. Adipocyte and osteoblasts were obtained by differentiation of human mesenchymal stem cells grown in adipogenic or osteoblastogenic specific differentiation culture mediums. […] Bone forming osteoblasts and fat forming adipocytes are both derived from mesenchymal stem cells (MSCs). An increase in PPARg activity due to treatment with the antidiabetic thiazolidinedione (TZD) drug rosiglitazone results in a decreased number of osteoblasts and an increased number of adipocytes.

Where [10] appears, read: T47D cells (human breast adenocarcinoma).
The mark [11] stands for this setting: MDA cells (human breast cancer).
Setting [12] is: HCT116 cells (human colon carcinoma).
Setting [13] is: HeLa cells (human cervical carcinoma).
Setting [14] is: 3T3-L1 cells (mouse embryonic fibroblast, adipose-like).
Where [15] appears, read: AGS cells (human gastric adenocarcinoma).

Experimental for 3T3-L1 fibroblasts: The 3T3-L1 preadipocyte cell line was plated at a concentration of 2×10^5 cell/well in 6-well plates for RNA isolations and tygliceride cunatification. 3T3-L1 fibroblasts were grown until confluence (3 days) in DMEM with 10% FBS and antibiotics. Then (day 0), medium was supplemented with 1 μM dexamethasone, IBMX 0.5 mM and 10 μg/ml insulin, to induce differentiation for 2 days. In day 2, the medium was supplemented only with 5 μg/ml insulin for two more days. All mediums used were additionally supplemented with cannabinoids, or rosiglitazone (1 μM) as control, since day 0. […] For trygliceride cuantification, cells were maintained in medium supplemented with cannabinoids until day 12 and refreshed every two days. […] 3T3-L1 fully differentiated adipocytes were washed in PBS and sonicated three times for 5 seconds in a buffer containing 2 M NaCl, 2 mM EDTA and 50 mM sodium phosphate pH 7.4 to release cellular content. Total triglyceride content released was quantified using a commercial Triglyceride Assay kit (Applied BioSystem, Spain) based on a colorimetric reaction and measured by absorbance at 500 nm in a spectrophotometer.

Consider `C=C(C)[C@@H]1CCC(C)=C[C@H]1c1c(O)cc(CCCCC)cc1O` [CBD, cannabidiol], for which the IC50 at 24 h in [1] (setting [10]) was 35 µM; in series [2] (setting [11]), more than 50 µM; in [3] (setting [12]), more than 50 µM; in series [4] (setting [13]), more than 50 µM; in series [5] (setting [14]) it was 30 µM; in series [6] (setting [15]), 25 µM.

In the case of `C=C(C)C1CCC(C)=C[C@H]1C1=C(O)C(=O)C(CCCCC)=CC1=O` (some centres unmarked) [CBD-Q, CBD-Quinone], the “cytotoxic effect in adipocyte differentiation assay, concentration” value with 3T3-L1 fibroblasts (3T3-L1, FIG. 8C, lacking bar) is listed as “higher than 1 μM”. Besides, in [7], the IC50 came out at 17.1 µM. The IC50 at 24 h in series [1] (IC50 values of MTT cytotoxicity assay, T47D, 24 hours of treatment) is 20 µM; in [2], 10.1 µM; in [3], 9.8 µM; in series [4], 40.5 µM; in series [5] it was 12 µM; in series [6], 7.44 µM.

Turning to `CCCCCc1cc(O)c(C/C=C(\C)CCC=C(C)C)c(O)c1` [CBG, cannabigerol], the IC50 at 24 h was 47 µM in series [1] (setting [10]); more than 50 µM in series [2] (setting [11]); more than 50 µM in series [3] (setting [12]); more than 50 µM in series [4] (setting [13]); 42.2 µM in [5] (setting [14]); more than 50 µM in series [6] (setting [15]). In series [8], the AdipoQ gene expression result is listed as “increment on AdipoQ”. For the same compound, the IL-6 gene expression entry in series [8] is reported as “reduction of the pro-inflammatory cytokine IL-6”. The glucose uptake result in the series on 3T3-L1 pre-adipocytes was “able to increment the glucosa uptake both in presence and absence of insulin”.

With `CCCCCC1=CC(=O)C(C/C=C(\C)CCC=C(C)C)=C(O)C1=O` [CBG-Q, CBG Hydroxyquinone], the “differentiation of fibroblasts to adipocytes (total triglyceride), in words” value in the series on 3T3-L1 fibroblasts (3T3-L1, FIGS. 4 and 8C) is given as “stimulate the differentiation of fibroblasts to adipocytes in a stronger way than CBG”. Further, the IC50 at 24 h was 44 µM in series [1]; 49 µM in [2]; 47 µM in series [3]; more than 50 µM in series [4]; 49 µM in [5]; 48 µM in series [6]. The AdipoQ gene expression result in [8] is listed as “increment on AdipoQ”. In addition, the IL-6 gene expression entry in series [8] is on record as “reduction of the pro-inflammatory cytokine IL-6”. Also, in series [9], the “expression of marker genes in adipocytes and osteoblasts” value is recorded as “no significant alteration in expression of marker genes”. Besides, the “glucose uptake compared with CBG” value in the series on 3T3-L1 pre-adipocytes (absence of insulin) is “higher effect than CBG”. The glucose uptake result in the series with 3T3-L1 pre-adipocytes was “able to increment the glucosa uptake both in presence and absence of insulin”.

As usually defined, the IC50 is the concentration needed to halve the response being measured.
